One data set relates to Liver microsome. The following applies: rat, microsomes.
For a further data set, the species on record is Mus musculus. The following applies: in vivo, po, 10 mg/kg, 4 h.
A short description of data set [1]: Oral bioavailability in cynomolgus monkey at 1.4 mg/kg after 0.25 to 24 hrs by LC/MS/MS method. The format is ADME, organism-based, Macaca fascicularis. To be noted: in vivo.
Data set [2] in a line: Oral bioavailability in Sprague-Dawley rat at 25 mg/kg after 0.25 to 24 hrs by LC/MS/MS method. The following applies: in vivo. Format: ADME, organism-based.
Data set [3] is described as follows: Clearance in Sprague-Dawley rat at 2.5 mg/kg, iv after 0.25 to 24 hrs by LC/MS/MS method. The format is ADME, organism-based. The following applies: in vivo.
The nature of data set [4]: Clearance in cynomolgus monkey at 1 mg/kg, iv after 0.25 to 24 hrs by LC/MS/MS method. Format: ADME, organism-based, Macaca fascicularis. The following applies: in vivo.
Data set [5] in a line: AUC in Sprague-Dawley rat at 25 mg/kg, po after 0.25 to 24 hrs by LC/MS/MS method. Set-up: time upper 24 hr, dose 25 mg/kg, time lower 0.25 hr, route oral. To be noted: in vivo. Format: ADME, organism-based.
Data set [6] can be described thus: AUC in cynomolgus monkey at 1.4 mg/kg, po after 0.25 to 24 hrs by LC/MS/MS method. To be noted: in vivo. Set-up: time 0.25-24 hr, dose 1.4 mg/kg, route oral. Format: ADME, organism-based, Macaca fascicularis.

Structures are written as SMILES.

The bioavailability is the share of a dose that reaches the circulation, judged against a reference dose that is usually intravenous. Broadly, the clearance is the volume of plasma or blood freed of the substance per unit of time. In general, AUC refers to the area under the concentration-time curve, a measure of exposure.

Description for Liver microsome: Drug metabolism in rat liver microsomes

Regarding `COC[C@@H]1C[C@H](N(C)C(C)C)CC[C@@H]1NC(=O)CNC(=O)c1cccc(C(F)(F)F)c1`, the Drug metabolism in the data set on Liver microsome amounted to 0.01 nmol/min/mg.

`CC(C)N(C)[C@@H]1CC[C@H](NC(=O)CNC(=O)c2cccc(C(F)(F)F)c2)[C@H](CS(=O)(=O)c2ccccc2)C1` returned an AUC/dose in the data set filed under Mus musculus of 1.1 µM·h. The same molecule displayed a Drug metabolism in the data set with Liver microsome of 0.16 nmol/min/mg.

Take `CCC[C@@H]1C[C@H](N(C)C(C)C)CC[C@@H]1N1CC[C@H](Nc2ncnc3ccc(C(F)(F)F)cc23)C1=O`: the values for the bioavailability in data set [1] and in data set [2] were 46% and 68%, respectively. Besides, the AUC/dose in the data set listed under Mus musculus came to 22 µM·h. Also, the clearance in data set [3] was 40 mL/min/kg; in data set [4] it was 25 mL/min/kg. In addition, the values for the AUC in data set [5] and in data set [6] were 9.29 µM·h and 0.862 µM·h, respectively.

Consider `CCCC[C@@H]1C[C@H](N(C)C(C)C)CC[C@@H]1NC(=O)CNC(=O)c1cccc(C(F)(F)F)c1`, for which the Drug metabolism with Liver microsome turned out to be 0.17 nmol/min/mg.

In turn, `CC(C)N(C)[C@@H]1CC[C@H](NC(=O)CNC(=O)c2cccc(C(F)(F)F)c2)[C@H](COc2ccccc2)C1` had a Drug metabolism in the data set on Liver microsome of 0.29 nmol/min/mg.

The record behind these values is ChEMBL document CHEMBL3576800, “Discovery of a Potent and Orally Bioavailable Dual Antagonist of CC Chemokine Receptors 2 and 5” (ACS Med Chem Lett, 2015).
